According to article PMC5571044 (Scientific Reports, 2017):

How the values were obtained:
[1] = test system: FluA Udorn replicon with PB2 N510T; type: cell-based, influenza A/H3N2/Udorn/72 in 293 T cells
PB2long N510T mutant = type: binding, influenza A/Udorn/307/1972(H3N2)

O=C(O)[C@H]1C2CCC(CC2)[C@@H]1Nc1nc(-c2c[nH]c3ncc(F)cc23)ncc1F [VX-787]
fold loss of cellular EC50, N510T vs WT replicon [1]: 90 fold | KD fold change, PB2long N510T (PB2long N510T mutant): 90 fold
